In patent publication US7674787B2, “Conformationally constrained Smac mimetics and the uses thereof” (The Regents of the University of Michigan, priority 2004, dated 2010):

Each compound was assayed against XIAP BIR3 (Homo sapiens, UniProt P98170) (assay: biochemical). Settings: not given.
Sequence of XIAP BIR3 (P98170 241-356): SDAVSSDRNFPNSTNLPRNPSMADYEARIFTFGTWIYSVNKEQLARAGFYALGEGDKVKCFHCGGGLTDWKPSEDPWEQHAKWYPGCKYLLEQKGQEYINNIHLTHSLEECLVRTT
`CC(C)C(NC(=O)[C@H](C)N)C(=O)C1CCC[C@H]1C(=O)NCc1ccccc1` (some centres unmarked) [Compound 1] gave a Ki of 0.29 ± 0.06 µM. For `CC[C@H](N)C(=O)N[C@H]1CCC[C@H]2CC[C@@H](C(=O)NCc3ccccc3)N2C1=O` [Compound 33], the Ki was 0.06 µM. For `C[C@H](N)C(=O)N[C@H]1CC[C@H]2CC[C@@H](C(=O)Nc3ccccc3)N2C1=O` [SH-69], the Ki was greater than 200 µM. In the case of `C[C@H](N)C(=O)N[C@H]1CC[C@H]2CC[C@@H](C(=O)N[C@@H](C)c3ccccc3)N2C1=O` [SH-71], the Ki is reported as greater than 200 µM. In the case of `C[C@H](N)C(=O)N[C@H]1CC[C@H]2CC[C@@H](C(=O)N[C@H](C)c3ccccc3)N2C1=O` [SH-72], the Ki is reported as 8.88 µM. Compound `C[C@H](N)C(=O)N[C@H]1CC[C@H]2CC[C@@H](C(=O)NCc3ccccc3Br)N2C1=O` [SH-73] has a Ki of 26.3 µM. `C[C@H](N)C(=O)N[C@H]1CC[C@H]2CC[C@@H](C(=O)NCc3cccc(Br)c3)N2C1=O` [SH-74] showed a Ki of 9.62 µM. With `C[C@H](N)C(=O)N[C@H]1CC[C@H]2CC[C@@H](C(=O)NCc3ccc(Br)cc3)N2C1=O` [SH-75] the Ki was 19.6 µM. For `Cc1cccc(CNC(=O)[C@@H]2CC[C@@H]3CC[C@H](NC(=O)[C@H](C)N)C(=O)N32)c1` [SH-77], the Ki was 44.4 µM. `C[C@H](N)C(=O)N[C@H]1CC[C@H]2CC[C@@H](C(=O)NCc3cccc(Cl)c3)N2C1=O` [SH-78] was tested, and the Ki was 12.2 µM. Compound `C[C@H](N)C(=O)N[C@H]1CC[C@H]2CC[C@@H](C(=O)NCCc3c[nH]c4ccccc34)N2C1=O` [SH-79] has a Ki greater than 200 µM. In the case of `C[C@H](N)C(=O)N[C@H]1CC[C@H]2CC[C@@H](C(=O)NCc3ccoc3)N2C1=O` [SH-84], the Ki is reported as 9.98 µM. Compound `C[C@H](N)C(=O)N[C@H]1CC[C@H]2CC[C@@H](C(=O)NCc3ccsc3)N2C1=O` [SH-85] has a Ki of 6.28 µM. `C[C@H](N)C(=O)N[C@H]1CC[C@H]2CC[C@@H](C(=O)N[C@H](Cc3ccccc3)C(N)=O)N2C1=O` [SH-92] was tested, and the Ki was 9.98 µM. `CC[C@H](N)C(=O)N[C@H]1CC[C@H]2CC[C@@H](C(=O)N[C@@H](Cc3ccccc3)c3ccccc3)N2C1=O` [SH-100] showed a Ki of 8.51 µM. `C[C@H](N)C(=O)N[C@H]1CCC[C@H]2CC[C@@H](C(=O)NC(c3ccccc3)c3ccccc3)N2C1=O` [SH-104] gave a Ki of 0.059 µM. With `C[C@H](N)C(=O)N[C@H]1CCC[C@H]2CC[C@@H](COC(c3ccccc3)c3ccccc3)N2C1=O` [SH-106] the Ki was 2.01 µM. In the case of `CC[C@H](N)CC[C@H]1CCC[C@H]2CC[C@@H](C(=O)NC(c3ccccc3)c3ccccc3)N2C1=O` [SH-107], the Ki is reported as greater than 40 µM. In the case of `CC[C@H](N)C(=O)N[C@H]1CCCC[C@H]2CC[C@@H](C(=O)N[C@H](c3ccccc3)c3ccccc3C)N2C1=O` [SH-113], the Ki is reported as 0.14 µM. With `CC[C@H](N)C(=O)N[C@H]1CCCC[C@H]2CC[C@@H](C(=O)N[C@H](c3ccccc3)c3cccc(C)c3)N2C1=O` [SH-114] the Ki was 0.027 µM. `CC[C@H](N)C(=O)N[C@H]1CCCC[C@H]2CC[C@@H](C(=O)N[C@H](c3ccccc3)c3ccc(C)cc3)N2C1=O` [SH-115] was tested, and the Ki was 0.092 µM. In the case of `CC[C@H](N)C(=O)N[C@H]1CCCC[C@H]2CC[C@@H](C(=O)N[C@@H](c3ccccc3)c3ccccc3C)N2C1=O` [SH-116], the Ki is reported as 0.019 µM. With `CC[C@H](N)C(=O)N[C@H]1CCCC[C@H]2CC[C@@H](C(=O)N[C@@H](c3ccccc3)c3cccc(C)c3)N2C1=O` [SH-117] the Ki was 0.012 µM. In the case of `CC[C@H](N)C(=O)N[C@H]1CCCC[C@H]2CC[C@@H](C(=O)N[C@@H](c3ccccc3)c3ccc(C)cc3)N2C1=O` [SH-118], the Ki is reported as 0.016 µM. `CC[C@H](N)C(=O)N[C@H]1CCCC[C@H]2CC[C@@H](C(=O)N[C@H](c3ccccc3)c3ccc4ccccc4c3)N2C1=O` [SH-119] showed a Ki of 0.12 µM. `CC[C@H](N)C(=O)N[C@H]1CCCC[C@H]2CC[C@@H](C(=O)N[C@@H](c3ccccc3)c3ccc4ccccc4c3)N2C1=O` [SH-120] was tested, and the Ki was 0.023 µM. In the case of `CC[C@@H](C(=O)N[C@H]1CCCC[C@H]2CC[C@@H](C(=O)NC(c3ccccc3)c3ccccc3)N2C1=O)N(C)C` [SH-125], the Ki is reported as 0.03 µM.

Same assay, conditions: Ki
Work on `CC[C@H](N)C(=O)N[C@H]1CCC[C@H]2CC[C@@H](C(=O)NCc3ccccc3)N2C1=O` [Compound 33] yielded a Ki of 0.06 µM.

Same assay, conditions: Ki (μM), Table 4, [5.3.0] bicyclic lactam system
In the case of `CC[C@H](N)C(=O)N[C@H]1CCC[C@H]2CC[C@@H](C(=O)NCc3ccccc3)N2C1=O` [Compound 33], the Ki is reported as 0.06 ± 0.015 µM.
